Data on 5 compounds can be found in article PMC9959130, “Effects of Side Chain and Peptide Bond Modifications on the Targeting Properties of Stabilized Minigastrin Analogs” (Pharmaceuticals, 2023).

One may read the fraction unbound as the share of the substance not bound to proteins or other matrix. A high value points to weak binding. A word on the share remaining: it is what is left of the initial amount, in per cent. A higher share remaining goes with less turnover.

A short description of series [1]: Binding to serum proteins (incubation in human serum, Sephadex G-50 size exclusion chromatography). Type of series: in vitro ADME. The note with it: 37 °C. As to the method:
Protein binding was determined by incubation of the radiolabeled peptides in human serum at 37 °C (500 pmol/mL, n = 2). For the time points of 1, 4, and 24 h after incubation, samples of 25 µL were subjected to Sephadex G-50 size exclusion chromatography (GE Healthcare Illustra, Little Chalfont, UK). The column and the eluate were measured using the γ-counter and the percentage of protein binding was calculated.

The nature of series [2]: Biodistribution in BALB/c nude mice bearing A431-CCK2R/A431-mock xenografts. Type of series: in vivo. The settings on record: female, athymic BALB/c nude, mouse, iv, 20 pmol, total radioactivity, ~20 pmol, 4 h p.i. (indium-111 or lutetium-177), mean ± SD n = 4; for tissue uptake at 4 h: xenografted BALB/c nude mice, i.v.; for tissue to tissue ratio at 4 h: BALB/c nude mice. As to the method: The overall biodistribution and tumor targeting properties of selected radiolabeled peptides were evaluated in female athymic BALB/c nude mice (Charles River, Sulzfeld, Germany, age of 7 to 9 weeks). After tumor induction with 2 × 10^6 A431-CCK2R or A431-mock cells (subcutaneously injected in 200 μL DMEM into the right and left flank) and a waiting period of 10–14 days (sufficient to achieve tumors of ∼0.25 g), mice were randomly divided into groups of four and treated with a bolus injection of 150 µL of the injectable solution containing the radiolabeled peptide via a lateral tail vein to achieve an injected radioactivity of 150–200 kBq and a total injected peptide amount of ~20 pmol (n = 4 for each radiopeptide). For DOTA-[(N-Me)1Nal^8]MGS5, additional biodistribution studies were performed with gallium-68 (~0.5 MBq, 20 pmol) and lutetium-177 (~0.5 MBq, 20 pmol). The animals were euthanatized by cervical dislocation at 1 h (gallium-68) or 4 h p.i. (indium-111/ lutetium-177). The tumors and other tissues (blood, lung, heart, muscle, spleen, intestine, liver, kidney, stomach, and pancreas) were dissected, weighed, and the radioactivity measured in the γ-counter. The rest of the body and a standard of the solution injected was also measured together with the collected samples. The percentage of injected activity per gram of tissue (% IA/g) and the tumor-to-organ activity ratio of selected tissues were calculated for each mouse and time point studied. Origin software (Microcal Origin 6.1, Northampton, MA, USA) was used for statistical analysis (independent t-test for two populations; significance level p < 0.05).

Series [3] can be described thus: Metabolic studies in BALB/c mice (intact radiopeptide by radio-HPLC). The class given is in vivo. The note with it: i.v., 2 nmol, 10 min p.i., two animals per peptide; for Intact radiopeptide in kidney: kidney homogenate; for Intact radiopeptide in liver: liver homogenate. On the procedure:
All animal experiments were approved by the Austrian Ministry of Science (BMWF-66.011/0075- WF/V/3b/2016) and performed in accordance with the Austrian Animal Protection Act. Metabolic studies characterizing the stability of selected radioligands against enzymatic degradation were carried out in 7 to 8 week old female BALB/c mice (Charles River, Sulzfeld, Germany). The mice (two animals for each peptide) were intravenously injected into a lateral tail vein with 5–10 MBq of the ^111In-labeled peptide derivatives, corresponding to 2 nmol total peptide. At the time point of 10 min p.i. the animals were euthanatized by cervical dislocation. A sample of urine and blood was immediately collected. Liver and kidneys were dissected, mixed with 20 mM HEPES buffer pH 7.3 (1:1, w/v) and homogenized using an Ultra-Turrax T8 homogenizer (IKA-Werke, Staufen, Germany) for 1 min. All samples taken were analyzed by analytical HPLC using the low-sensitivity loop for urine and the high-sensitivity loop for blood, liver and kidney. Before injection into the HPLC system, all samples except urine were treated with ACN and diluted with water as described for stability studies in human serum. The percentage of intact radiopeptide in the analyzed samples was calculated by integration of the different peaks found in the radiochromatogram using Chromeleon Dionex Software (Version 7.2.9.11323).

Series [4] in a line: In vitro stability in human serum (intact radiopeptide by radio-HPLC). Type of series: in vitro ADME. The settings on record: fresh human serum, 37 °C, n = 2. On the procedure:
In vitro stability studies were performed in human serum (n = 2). The radiolabeled peptides (1000 pmol/mL) were incubated at 37 °C and a sample of 100 μL was taken at 1, 4, and 24 h after incubation. After the precipitation of proteins with ACN at 1:1.5 (v/v), centrifugation (14,000 rpm, 2 min, centrifuge 5424, Eppendorf AG, Germany) and dilution with water at 1:1 (v/v), an aliquot of 100 μL of this solution was analyzed by HPLC. Radioligand breakdown was monitored and the percentage of intact radiopeptide was calculated using Chromeleon Dionex Software (Version 7.2.9.11323). Additionally, the radiolabeled peptides (1000 pmol/mL) were incubated in PBS (n = 1) at room temperature to confirm the complex stability as a control.

Each structure is given as a SMILES string. Where two headings read alike, the source gives them in different places. Where a SMILES comes first, the peptide text is derived from it. [ ]: non-standard residue; d: D form. The star is where a group is joined. DOTA = O=C(O)CN1CCN(CC(=O)O)CCN(CC(=O)*)CCN(CC(=O)O)CC1; NMeNle = CCCC[C@H](NC)C(=O)O

In series [1] (human, radiolabeled peptide, 4 h after incubation, Sephadex G-50, n = 2), `CCCC[C@@H](C(=O)N[C@@H](CC(=O)O)C(=O)N(C)[C@@H](Cc1cccc2ccccc12)C(N)=O)N(C)C(=O)[C@H](Cc1c[nH]c2ccccc12)NC(=O)CNC(=O)[C@H](Cc1ccc(O)cc1)NC(=O)[C@H](C)NC(=O)[C@@H](CCC(=O)O)NC(=O)CN1CCN(CC(=O)O)CCN(CC(=O)O)CCN(CC(=O)O)CC1` [[^177Lu]Lu-DOTA-[(N-Me)1Nal^8]MGS5, metal not drawn] showed a free fraction (fraction unbound) at 4 h, 500 pmol/mL of 0.746. Moreover, the fraction unbound at 24 h, 500 pmol/mL in series [1] (radiolabeled peptide (111In where no radiometal named), 24 h after incubation, Sephadex G-50, γ-counter, n = 2) is 0.713. Moreover, the tissue uptake at 4 h came out at 35.1 ± 6.32 %ID/g in series [2] (A431-CCK2R xenograft, read-out: Uptake in A431-CCK2R xenograft) and 2.37 ± 0.33 %ID/g in series [2] (stomach, read-out: Uptake in stomach).

Regarding `CCCC[C@@H](C(=O)N[C@@H](CC(=O)O)C(=O)N[C@@H](Cc1ccc2ccccc2c1)C(N)=O)N(C)C(=O)[C@H](Cc1c[nH]c2ccccc12)NC(=O)CNC(=O)[C@H](Cc1ccc(O)cc1)NC(=O)[C@H](C)NC(=O)[C@@H](CCC(=O)O)NC(=O)CN1CCN(CC(=O)O)CCN(CC(=O)O)CCN(CC(=O)O)CC1` [[^111In]In-DOTA-[2Nal^8]MGS5] [metal not drawn], in series [3], the “Intact radiopeptide in kidney” value was 24.7 ± 0.3%, the “Intact radiopeptide in liver” value is 83.9 ± 0.1%, the “Intact radiopeptide in blood” value is reported as 88.4 ± 0.4% and the “Intact radiopeptide in urine” value is 28.2 ± 1.0%.

Turning to `CCCC[C@@H](C(=O)N[C@@H](CC(=O)O)C(=O)N[C@@H](Cc1cccc2ccccc12)C(=O)NC)N(C)C(=O)[C@H](Cc1c[nH]c2ccccc12)NC(=O)CNC(=O)[C@H](Cc1ccc(O)cc1)NC(=O)[C@H](C)NC(=O)[C@@H](CCC(=O)O)NC(=O)CN1CCN(CC(=O)O)CCN(CC(=O)O)CCN(CC(=O)O)CC1` [[^111In]In-DOTA-MGS5[NHCH3]] [metal not drawn], in series [3], the “Intact radiopeptide in kidney” value worked out at 7.4 ± 8.6%, the “Intact radiopeptide in liver” value came to 78.1 ± 3.7%, the “Intact radiopeptide in blood” value was found to be 71.7 ± 6.2% and the “Intact radiopeptide in urine” value was found to be 1.3 ± 0.2%.

`CCCC[C@@H](C(=O)N[C@@H](CC(=O)O)C(=O)N(C)[C@@H](Cc1cccc2ccccc12)C(N)=O)N(C)C(=O)[C@H](Cc1c[nH]c2ccccc12)NC(=O)CNC(=O)[C@H](Cc1ccc(O)cc1)NC(=O)[C@H](C)NC(=O)[C@@H](CCC(=O)O)NC(=O)CN1CCN(CC(=O)O)CCN(CC(=O)O)CCN(CC(=O)O)CC1` [[^111In]In-DOTA-[(N-Me)1Nal^8]MGS5, metal not drawn] showed an amount remaining at 4 h, 1000 pmol/mL in series [4] (human, radiolabeled peptide, 4 h after incubation) of 99.3 ± 0.9%. The amount remaining at 24 h, 1000 pmol/mL in series [4] (radiolabeled peptide (111In where no radiometal named), 24 h after incubation) turned out to be 99.6 ± 0.1%. For the same compound, the tissue to tissue ratio at 4 h stood at 281 ± 88.5 in series [2] (A431-CCK2R xenograft / blood, A431-CCK2R xenograft, read-out: tumor-to-organ ratio: blood); 7.55 ± 0.48 in series [2] (A431-CCK2R xenograft / kidney, A431-CCK2R xenograft, read-out: tumor-to-organ ratio: kidney); 11.5 ± 1.82 in series [2] (A431-CCK2R xenograft / stomach, A431-CCK2R xenograft, read-out: tumor-to-organ ratio: stomach). For the same compound, the tissue uptake at 4 h was determined as 0.38 ± 0.08 %ID/g in series [2] (A431-mock xenograft, read-out: Uptake in A431-mock xenograft); 0.19 ± 0.07 %ID/g in series [2] (blood, read-out: Uptake in blood); 0.14 ± 0.03 %ID/g in series [2] (heart, read-out: Uptake in heart); 0.81 ± 0.1 %ID/g in series [2] (intestine, read-out: Uptake in intestine); 6.33 ± 0.89 %ID/g in series [2] (kidneys, read-out: Uptake in kidneys); 1.39 ± 0.16 %ID/g in series [2] (liver, read-out: Uptake in liver). The tissue uptake at 4 h in series [2] (lung, read-out: Uptake in lung) was 0.21 ± 0.07 %ID/g; in series [2] (muscle, read-out: Uptake in muscle), 0.12 ± 0.05 %ID/g; in series [2] (spleen, read-out: Uptake in spleen), 0.32 ± 0.05 %ID/g.

`CCCC[C@@H](C(=O)N[C@@H](CC(=O)O)C(=O)N[C@@H](Cc1ccccc1)C(N)=O)N(C)C(=O)[C@H](Cc1c[nH]c2ccccc12)NC(=O)CNC(=O)[C@H](Cc1ccc(O)cc1)NC(=O)[C@H](C)NC(=O)[C@@H](CCC(=O)O)NC(=O)CN1CCN(CC(=O)O)CCN(CC(=O)O)CCN(CC(=O)O)CC1` [[^111In]In-DOTA-[Phe^8]MGS5] [metal not drawn] ({DOTA}-[dE]AYGW[NMeNle]DF-NH2): in series [1] (radiolabeled peptide (111In where no radiometal named), 500 pmol/mL, 24 h after incubation, Sephadex G-50, γ-counter, n = 2), the “Binding to Serum Proteins (%)” value is reported as 20%.
